According to US20190247361A1, “OXYTOCIN ANTAGONIST DOSING REGIMENS FOR PROMOTING EMBRYO IMPLANTATION AND PREVENTING MISCARRIAGE” (ObsEva S.A., priority 2016, published 2019):

How the values were obtained:
[1] = tested on: subjects undergoing embryo transfer therapy; experiment: Phase 2 clinical study: pregnancy and live birth after embryo transfer; assay type: in vivo, human
Text: A total of 247 female subjects were selected for treatment based on a variety of inclusion criteria. Of these, 244 subjects completed the study. The study was open to healthy female volunteers from 18 to 36 years of age that had previously undergone up to one IVF or ICSI cycle that resulting in a negative pregnancy test as assessed by hCG detection, despite the transfer of at least one embryo of good quality, which was defined as an embryo having from six to eight blastomeres of uniform size and shape on the day of embryo transfer, ooplasm having no granularity, absence of multinucleation, and a maximum fragmentation of 10%. Subjects included in the study had at least one functional ovary and were capable of communicating with the investigator and research staff and complying with the requirements of the study protocol. Data are presented in the form of mean (standard deviation).
Subjects included in the study underwent an initial screening period beginning up to 12 weeks prior to the day of oocyte retrieval from the subject. During this 12-week period, subjects underwent physical and gynecological examination in preparation for oocyte retrieval. This analysis included a recordation of the subjects' vital signs, hematology and biochemistry analysis of blood samples withdrawn from the subjects, urinary analysis, and a comprehensive review of the subjects' medical histories.
At the conclusion of the screening period, subjects underwent controlled ovarian hyperstimulation by administration of a GnRH antagonist so as to prevent a premature rise in serum LH concentration. Concurrent pre-treatment with an oral contraceptive prior to controlled ovarian hyperstimulation was allowed, but not required. Final follicular maturation was performed with a single administration of hCG to the subject. Luteal support was performed by intravaginal administration of micronized natural progesterone at a dose of 600 mg (3×200 mg dosage forms) daily, commencing within 6-24 hours of oocyte retrieval. Progesterone administration continued for at least 6 weeks following embryo transfer for subjects testing positive for pregnancy at 14 days following embryo transfer. Retrieved oocytes contained at least 1-4 mature oocytes (i.e., ova), which were subsequently used for IVF or ICSI for embryo generation.
The embryo transfer procedure was conducted three days after the oocyte retrieval day (OPU+3 days). Subjects undergoing embryo transfer were monitored prior to initiating the procedure. This analysis included a recordation of vital signs, as well as a transvaginal ultrasound to assess uterine contraction rate and endometrial thickness. […] Eligible subjects subsequently underwent blood sample analysis to determine pre-treatment levels of serum E2 and P4.
From one to two embryos of good quality were transferred to each subject. To reduce uterine contractions at the time of embryo transfer, soft or ultra-soft catheters were used and contact with the uterine fundus was avoided. Any difficulties that occurred during the embryo transfer procedure were recorded, including instances in which uterine sounding or cervical dilation were required, instances in which a harder catheter was required, or instances in which blood was found in any part of the catheter.
Approximately 1 hour following embryo transfer, subjects underwent a final physical examination and were subsequently discharged from the clinical unit until the first follow-up visit, which occurred at about 14 days following oocyte retrieval (OPU+14 days). At this time, subjects underwent a physical examination as well as a blood sample analysis to assess pregnancy by detection of hCG. Subjects testing positive for pregnancy continued the study and were scheduled for follow-up examinations at about 6 weeks following embryo transfer and at about 10 weeks following oocyte retrieval (OPU+10 weeks). Subjects that returned for examination at about 6 weeks following embryo transfer underwent ultrasound analysis. […]

[2] = tested on: cytochrome P450; experiment: microsomal stability, pooled liver microsomes, cytochrome P450 alone; assay type: in vitro ADME; settings: 45 minute experiment
Description: At five time points over the course of a 45 minute experiment, the compounds were analyzed by liquid chromatography and tandem mass spectrometry (LC-MS/MS). Intrinsic clearance values (CLint) with standard error (SE CLint) and metabolic half-life (t1/2) were calculated and are indicated in Table 9, below.

[3] = tested on: human subjects; settings: cited from earlier work
[4] = All P4 quartiles, 1 embryo transferred, 100 mg dose
[5] = All P4 quartiles, 1 embryo transferred, 300 mg dose
[6] = All P4 quartiles, 1 embryo transferred, 900 mg dose
[7] = All P4 quartiles, 1 embryo transferred, All doses
[8] = All P4 quartiles, 2 embryos transferred, 100 mg dose
[9] = All P4 quartiles, 2 embryos transferred, 300 mg dose
[10] = All P4 quartiles, 2 embryos transferred, 900 mg dose
[11] = All P4 quartiles, 2 embryos transferred, All doses
[12] = Excluding upper P4 quartile, 1 embryo transferred, 100 mg dose
[13] = Excluding upper P4 quartile, 1 embryo transferred, 300 mg dose
[14] = Excluding upper P4 quartile, 1 embryo transferred, 900 mg dose
[15] = Excluding upper P4 quartile, 1 embryo transferred, All doses
[16] = Excluding upper P4 quartile, 2 embryos transferred, 100 mg dose
[17] = Excluding upper P4 quartile, 2 embryos transferred, 300 mg dose
[18] = Excluding upper P4 quartile, 2 embryos transferred, 900 mg dose
[19] = Excluding upper P4 quartile, 2 embryos transferred, All doses
[20] = excluding subjects from pre-treatment serum P4 concentration Q4, 100 mg dose
[21] = excluding subjects from pre-treatment serum P4 concentration Q4, 300 mg dose
[22] = excluding subjects from pre-treatment serum P4 concentration Q4, 900 mg dose
[23] = excluding subjects from pre-treatment serum P4 concentration Q4, All doses

## CO/N=C1/C[C@@H](CO)N(C(=O)c2ccc(-c3ccccc3C)cc2)C1 [Compound (II), (3Z,5S)-5-(hydroxymethyl)-1-[(2′-methyl-1,1′-biphenyl-4-yl)carbonyl]pyrrolidin-3-one O-methyloxime]
[1]; [4]
  Live birth rate at a gestational age of at least 24 weeks: (33.33%)
  Live birth rate at a gestational age of at least 24 weeks, Frequency: 13/39
[1]; [5]
  Live birth rate at a gestational age of at least 24 weeks: (33.33%)
  Live birth rate at a gestational age of at least 24 weeks, Frequency: 12/36
[1]; [6]
  Live birth rate at a gestational age of at least 24 weeks: (40.00%)
  Live birth rate at a gestational age of at least 24 weeks, Frequency: 14/35
[1]; [7]
  Live birth rate at a gestational age of at least 24 weeks: (35.45%)
  Live birth rate at a gestational age of at least 24 weeks, Frequency: 39/110
[1]; [8]
  Live birth rate at a gestational age of at least 24 weeks: (52.17%)
  Live birth rate at a gestational age of at least 24 weeks, Frequency: 12/23
[1]; [9]
  Live birth rate at a gestational age of at least 24 weeks: (37.50%)
  Live birth rate at a gestational age of at least 24 weeks, Frequency: 9/24
[1]; [10]
  Live birth rate at a gestational age of at least 24 weeks: (50.00%)
  Live birth rate at a gestational age of at least 24 weeks, Frequency: 12/24
[1]; [11]
  Live birth rate at a gestational age of at least 24 weeks: (46.48%)
  Live birth rate at a gestational age of at least 24 weeks, Frequency: 33/71
[1]; [12]
  Live birth rate at a gestational age of at least 24 weeks: (32.35%)
  Live birth rate at a gestational age of at least 24 weeks, Frequency: 11/34
[1]; [13]
  Live birth rate at a gestational age of at least 24 weeks: (45.45%)
  Live birth rate at a gestational age of at least 24 weeks, Frequency: 10/22
[1]; [14]
  Live birth rate at a gestational age of at least 24 weeks: (44.83%)
  Live birth rate at a gestational age of at least 24 weeks, Frequency: 13/29
[1]; [15]
  Live birth rate at a gestational age of at least 24 weeks: (40.00%)
  Live birth rate at a gestational age of at least 24 weeks, Frequency: 34/85
[1]; [16]
  Live birth rate at a gestational age of at least 24 weeks: (50.00%)
  Live birth rate at a gestational age of at least 24 weeks, Frequency: 8/16
[1]; [17]
  Live birth rate at a gestational age of at least 24 weeks: (53.85%)
  Live birth rate at a gestational age of at least 24 weeks, Frequency: 7/13
[1]; [18]
  Live birth rate at a gestational age of at least 24 weeks: (60.00%)
  Live birth rate at a gestational age of at least 24 weeks, Frequency: 12/20
[1]; [19]
  Live birth rate at a gestational age of at least 24 weeks: (55.10%)
  Live birth rate at a gestational age of at least 24 weeks, Frequency: 27/49
[1]; all subjects, 100 mg dose
  Live birth rate at gestational age of at least 24 weeks: 40.3%
  Ongoing pregnancy rate at 6 weeks post embryo transfer: 46.8%
  Ongoing pregnancy rate at 10 weeks post oocyte retrieval: 43.5%
  Positive pregnancy test at 14 days post embryo transfer: 56.5%
[1]; all subjects, 300 mg dose
  Live birth rate at gestational age of at least 24 weeks: 35.0%
  Ongoing pregnancy rate at 6 weeks post embryo transfer: 35.0%
  Ongoing pregnancy rate at 10 weeks post oocyte retrieval: 35.0%
  Positive pregnancy test at 14 days post embryo transfer: 50.0%
[1]; all subjects, 900 mg dose
  Live birth rate at gestational age of at least 24 weeks: 43.3%
  Ongoing pregnancy rate at 6 weeks post embryo transfer: 46.7%
  Ongoing pregnancy rate at 10 weeks post oocyte retrieval: 45.0%
  Positive pregnancy test at 14 days post embryo transfer: 53.3%
[1]; all subjects, All doses
  Live birth rate at gestational age of at least 24 weeks: 39.6%
  Ongoing pregnancy rate at 6 weeks post embryo transfer: 42.9%
  Ongoing pregnancy rate at 10 weeks post oocyte retrieval: 41.2%
[1]; [20]
  Absolute increase in live birth rate vs placebo: 7.4%
  Live birth rate at gestational age of at least 24 weeks: 38.0%
  Live birth rate at gestational age of at least 24 weeks, frequency: 19/50;
  Ongoing pregnancy rate at 6 weeks post embryo transfer: 44.0%
  Ongoing pregnancy rate at 10 weeks post oocyte retrieval: 42.0%
  Positive pregnancy test at 14 days post embryo transfer: 54.0%
[1]; [21]
  Absolute increase in live birth rate vs placebo: 18.0%
  Live birth rate at gestational age of at least 24 weeks: 48.6%
  Live birth rate at gestational age of at least 24 weeks, frequency: 17/35;
  Ongoing pregnancy rate at 6 weeks post embryo transfer: 48.6%
  Ongoing pregnancy rate at 10 weeks post oocyte retrieval: 48.6%
  Positive pregnancy test at 14 days post embryo transfer: 62.9%
[1]; [22]
  Absolute increase in live birth rate vs placebo: 20.4%
  Live birth rate at gestational age of at least 24 weeks: 51.0%
  Live birth rate at gestational age of at least 24 weeks, frequency: 25/49;
  Ongoing pregnancy rate at 6 weeks post embryo transfer: 53.1%
  Ongoing pregnancy rate at 10 weeks post oocyte retrieval: 51.0%
  Positive pregnancy test at 14 days post embryo transfer: 59.2%
[1]; [23]
  Absolute increase in live birth rate vs placebo: 14.9%
  Live birth rate at gestational age of at least 24 weeks: 45.5%
  Live birth rate at gestational age of at least 24 weeks, frequency: 61/134;
  Ongoing pregnancy rate at 6 weeks post embryo transfer: 48.5%
  Ongoing pregnancy rate at 10 weeks post oocyte retrieval: 47.0%
[2]; read-out: CLint, Metabolic Stability - CYP
  microsomal CLint at 3 μM: 11.6 µL/min/mg
[2]; read-out: t1/2, Metabolic Stability - CYP
  half-life at 3 μM: 2 h
[3]
  safely tolerated dose: up to 1500 mg
